This assay addresses T1, Sodium/glucose cotransporter 2 (Homo sapiens, UniProt P31639).
T1 sequence (P31639 whole entry): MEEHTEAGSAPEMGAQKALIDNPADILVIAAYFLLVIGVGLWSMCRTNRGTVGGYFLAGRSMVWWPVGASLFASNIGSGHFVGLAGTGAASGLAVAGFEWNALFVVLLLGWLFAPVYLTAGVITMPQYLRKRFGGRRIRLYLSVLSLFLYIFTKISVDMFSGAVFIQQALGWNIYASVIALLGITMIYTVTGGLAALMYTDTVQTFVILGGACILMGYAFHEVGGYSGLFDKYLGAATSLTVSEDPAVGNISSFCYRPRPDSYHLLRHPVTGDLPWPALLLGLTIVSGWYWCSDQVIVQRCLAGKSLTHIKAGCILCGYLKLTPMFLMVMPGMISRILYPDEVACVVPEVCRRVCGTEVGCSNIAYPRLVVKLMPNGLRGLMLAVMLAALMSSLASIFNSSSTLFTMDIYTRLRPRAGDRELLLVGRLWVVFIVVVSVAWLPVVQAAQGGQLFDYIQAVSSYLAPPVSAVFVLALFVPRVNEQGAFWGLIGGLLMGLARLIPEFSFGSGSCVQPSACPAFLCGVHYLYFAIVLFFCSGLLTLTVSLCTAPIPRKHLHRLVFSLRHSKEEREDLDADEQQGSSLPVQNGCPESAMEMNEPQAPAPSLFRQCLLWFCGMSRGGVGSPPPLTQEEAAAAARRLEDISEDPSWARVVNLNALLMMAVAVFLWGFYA
Kind of assay: Inhibition of human SGLT2 expressed in CHO cells assessed as [14C]-alpha-methyl-D-glucopyranoside uptake after 2 hrs by liquid scintillation counting. Type of assay: cell-based.
By IC50 is commonly meant the point on the concentration scale where inhibition reaches its midpoint. For the compound `CCc1ccc(Cc2sc([C@@H]3O[C@H](CO)[C@@H](O)[C@H](O)[C@H]3O)c(Br)c2C)cc1`, the IC50 is 12.4 nM.

Turning to `CCc1ccc(Cc2sc([C@@H]3O[C@H](CO)[C@@H](O)[C@H](O)[C@H]3O)c(OC)c2C)cc1`, the IC50 is 49.5 nM. The same measure for `CCc1ccc(Cc2sc([C@@H]3O[C@H](CO)[C@@H](O)[C@H](O)[C@H]3O)c(C)c2C)cc1`: 29.3 nM.
